Measured values taken from patent publication US20220112470A1, “SYSTEMS AND METHODS FOR METABOLIC ENGINEERING” (THE TRUSTEES OF COLUMBIA UNIVERSITY IN THE CITY OF NEW YORK, priority 2019, published 2022).

What was measured:
[1] = relative to tetracycline, literature (ref. 55); cited from earlier work
LexA-TetR fusion protein = target: T1, LexA-TetR fusion protein (Escherichia coli, UniProt P04483); test: Y3H LacZ assay for tetracyclines; assay type: cell-based, Saccharomyces cerevisiae
T1 construct: expressed in transfected cells; host or cells: Saccharomyces cerevisiae: FY250-derived PBA-8 (LacZ), LW2635-derived PBA-14 (URA3 growth), FY250-derived HL-2-4-1 (mCherry); the other entry of the earlier key: lexA (P0A7C2, LexA repressor)
Protocol: Protocol for Y3H LacZ Assay. […] Pelleting and resuspension were repeated once more. […] The assay plate was placed in the shaker overnight. OD measurements were then taken after 24 h, and the cells ere pelleted and resuspended in 100 μL of Z-buffer (60 mM Na2HPO4, 40 mM NaH2PO4, 10 mM KCl, 2 mM MgSO4, pH adjusted to 7, 2.7 mL/L of β-mercaptoethanol added fresh the day of the assay). The cells were pelleted again, resuspended in 100 μL of Y-PER buffer (Fisher Scientific, no. 78990), and lysed for 30 min at rt before the addition of o-nitrophenyl β-Dgalactopyranoside (ONPG) in Z-buffer (8.5 μL, 10 mg/mL). After 90 min, a Na2CO3 solution (1 M, 110 μL) was added to quench the reaction. After pelleting at 3000 rpm, 175 μL of the supernatant was transferred into flat clear-bottom 96-well plates (Corning no. 353072), and OD420 was measured. The limit of detection was calculated as the concentration of molecule at which the signal-to-noise ratio of the assay was >3:1.^32,33

TetR [2] = target: T2, TetR (Escherichia coli, UniProt P04483); settings: literature (ref. 37); cited from earlier work
TetR [3] = target: T2, TetR; settings: literature (ref. 37); cited from earlier work; remark: listed apart in the source
[4] = tested on: LexA-TetR fusion proteins of TetR classes A, B, C, D, E, G and H; test: Y3H LacZ assay with varying TetR classes; assay type: cell-based, Saccharomyces cerevisiae; settings: FIG. 2B
Protocol: Y3H Strain Construction. LexA-TetR Plasmids. Plasmids PBA-Gib5 and HL-249-1 through HL-249-6 encoding LexA-TetR protein fusions for the various TetR classes were cloned by Gibson Assembly of the appropriate TetR sequence with pMW103 digested with restriction enzymes BamHI-HF and EcoRI-HF (Table 3). All TetR sequences with the exception of B) were obtained as IDT gBlocks. TetR(B) sequence was amplified from pET21d-TetR, courtesy of A. Davidson.^25,26
LacZ Assay Strain Construction. V506 was grown overnight in UT-media.^27 The culture was then diluted […] with UT- and plated on UT-plates. Single colonies were streaked on HTU- and UT-plates and a streak growing on UT- but not on HTU-, indicating the loss of the pMW3-(GSG)2rGR2 plasmid, was glycerol stocked as PBA5. This strain was further used for the transformation of the LexA-TetR plasmids to generate LacZ assay strains PBA8 and HL-260-1 through HL-260-7.
Protocol for Y3H LacZ Assay. […] Pelleting and resuspension were repeated once more. […] The assay plate was placed in the shaker overnight. […] After pelleting at 3000 rpm, 175 μL of the supernatant was transferred into flat clear-bottom 96-well plates (Corning no. 353072), and OD420 was measured. The limit of detection was calculated as the concentration of molecule at which the signal-to-noise ratio of the assay was >3:1.^32,33

[5] = target: LexA-TetR(B) fusion protein (Escherichia coli, UniProt P04483); settings: purified TAN-1612 0.5 μM in assay well, 10 μM CID, FIG. 4B
Protocol: Protocol for Fluorescent Protein Y3H Assay. Fresh patches of Y3H strain HL-2-4-1 were inoculated into HTU-media (1 mL) in 24-well plates (flat, clear bottom, Corning no. 3526) and placed in the shaker. After 24 h, the cells were pelleted by centrifugation at 3250 rpm and resuspended in H2O (1 mL). Pelleting and resuspension were repeated once more. OD600 was measured by diluting 10× into H2O, and the cells were diluted accordingly into H2O for OD600=1 to be used as a 10× solution. A total of 20 μL of cells of OD600=1 were added to the assay plate as the last component in the assay plate (flat, clear bottom, black 96-well plate, Corning no. 3603). […] Starting conditions in the assay plate were OD600=0.1, 2% galactose, 2% raffinose, 0% glucose, 1×HTU-, 10 μM CID, 2% DMSO. The assay plate was placed in the 30° C. shaker overnight before measuring OD600 and 620 nm fluorescence (λex=588 nm).^31
Overnight cultures were used to inoculate 100 mL of YPD in 500 mL conical flasks with a starting OD600 of 0.08. After 68 h, 1 mL of culture was pelleted in 1.5 mL Eppendorf tubes at 14 000 rpm, sterile filtered, and diluted 20× into H2O to be used as a 10× stock solution.
The plate was covered with two layers of SealMate film (Excel Scientific, SM-KIT-BS) and placed in a shaker overnight. […]

## 9-NH2-minocycline
[1]
  acid stability: high acid stability relative to tetracycline
LexA-TetR fusion protein; LacZ reporter, competition with Min-Mtx CID, FIG. 2C
  concentrations differentiated by the Y3H system (range): 0.2 to 20 µM

## Cc1c2c(c(O)c3c(O)cccc13)C(=O)C1(O)C(=O)C(C(N)=O)=C(O)CC1C2 (centres unmarked) [4-de(dimethylamino)-anhydrotetracycline]
TetR [2]
  induction in TetR-TetO-based assay: no induction was detected
TetR [3]
  binding to TetR: possible to detect binding

## CN(C)c1cc(NC(=O)CNC(=O)CC[C@H](NC(=O)c2ccc(N(C)Cc3ccc4nc(N)nc(N)c4c3)cc2)C(=O)O)c(O)c2c1C[C@H]1C[C@H]3C(N(C)C)C(O)=C(C(N)=O)C(=O)[C@@]3(O)C(O)=C1C2=O (some centres unmarked) [Min-Mtx CID]
[4]; TetR(B) and TetR(G)
  response to the CID, best TetR classes: showed the best response to the CID
[4]; all TetR classes tested as protein receptors
  responsiveness of the Y3H system to the CID: responsive to the CID with all known TetR classes except for the TetR(C) variant used
LexA-TetR fusion protein; varying concentrations of Min-Mtx CID, FIG. 2A
  reporter gene output dependence on CID: dependent upon the presence of the CID

## COc1cc(O)c2c(O)c3c(cc2c1)CC1(O)CC(=O)C(C(C)=O)=C(O)C1(O)C3=O (centres unmarked) [TAN-1612]
[5]
  Y3H signal (mCherry) of purified compound spiked into nonproducer supernatants: resembles the signal obtained with producer supernatant
